Values of other authors in US10874875B2, “Irradiation device” (Photocure ASA, priority 2009, dated 2020).

Tested on: CIN2 or CIN3 or a persistent CIN1
Conditions: 24 patients; local application in a thermogel formulation; illumination 17 minutes after 3-5 hours, laser 100 J/cm^2; second PDT offered for incomplete response; scored at 6 months after the first treatment

SMILES: CCCCCCOC(=O)CCC(=O)CN [5-ALA hexylester, 5-ALA hexyl ester]
- complete response rate: 63%
